Square brackets hold non-standard residues; d marks the D form. Peptide text beside a SMILES is read from it.
Biological target: calmodulin (Homo sapiens, UniProt P0DP23)
Test: calcium-dependent phosphodiesterase assay (calmodulin activity)
Assay type: biochemical
Conditions: for IC50: Table I, assayed at 75, 50 and 12.5 μM, average of repeated assays, read-out: Average IC50
Method: In the calcium dependent phosphodiesterase assay, calmodulin can be assayed by its ability to stimulate phosphodiesterase activity as determined by a two-step assay procedure illustrated by reactions (1) and (2) below. [drawing 1]
During the first step of the assay cyclic adenosine 3'5'-monophosphate (cAMP) is incubated with calcium-activated phosphodiesterase (Cal-PDE), which hydrolyses the 3'bond producing adenosine 5'-monophosphate (5'-AMP). During the second step, 5'-AMP is quantitatively converted into adenosine and inorganic phosphate (Pi) through the action of a 5-nucleotidase. The reaction is followed by the measurement of the Pi formed by reading the absorbance at 660 nm after reacting with ammonium molybdate. The amount of Pi formed is directly related to the phosphodiesterase activity which depends on the level of activation by calmodulin.
To sample assay tubes were added the following components: assay buffer, 25 ul; CaCl2, 5 ul; 5'-nucleotidase, 7.5 ul (stock solution is 10 units/ml); calmodulin 5 units; calmodulin inhibitor peptides to obtain the desired final concentration of 50 μM. The volume was then made up to 200 ul with water. Control blanks were prepared replacing the peptides with water. The added components were thoroughly mixed and the tubes incubated at 30° C. for 10 min. […] The samples were centrifuged to remove the protein precipitate and the 50 ul of the supernatant was withdrawn for phosphate measurement. […] The absorbance of the solution were read at 660 nm using water as a blank, identified as control "Calmo."
The two controls used in the assay, one without and one with calmodulin, as indicated in FIG. 1 and Table I were as follows,: (1) PDE:
These three controls were used in the calcium-dependent phosphodiesterase assay for reproducibility of the assay.
In addition to the calcium-dependent phosphodiesterase assay data, IC50 values were determined for many of the peptides. The assay carried out for the determination in the IC50 values differed from the above screening assay by the concentration of the peptides being tested.
(3) TFP: trifluoperazine; and (4) Calmidasolium: (1-[bis-(4-chlorophenyl)methyl]-3[-2-(2,4-dichlorophenyl)-2[(2,4-dichlorophenyl)methoxy]-ethyl]-1H-imidazolium chloride. The IC50 values were calculated using sigmoidal curve software (Graphpad, ISI; San Diego, Calif.) using the % inhibition at different mixture concentrations (see protocol for determination of % inhibition).
The (L)-amino acid counterpart for five (5) of the all (D)-amino acid peptides identified from the PS-SCL were synthesized in order to study the stereoselectivity of the inhibition.

Compound	IC50	inhibition at 50 µM (50 μM peptide, PDE without calmodulin = 100%, calmodulin without peptide = 0%)
CC(=O)N[C@H](CC(C)C)C(=O)N[C@H](CCC(N)=O)C(=O)N[C@H](CCCNC(=N)N)C(=O)N[C@H](Cc1c[nH]cn1)C(=O)N[C@H](Cc1c[nH]cn1)C(=O)N[C@H](CCCNC(=N)N)C(N)=O [Ac-(D)Leu-(D)Gln-(D)Arg-(D)His-(D)His-(D)Arg-NH2] (Ac-[dL][dQ][dR][dH][dH][dR]-NH2)	20 µM	–
CC(=O)N[C@H](CC(C)C)C(=O)N[C@H](CCC(N)=O)C(=O)N[C@H](CCCNC(=N)N)C(=O)N[C@H](Cc1c[nH]cn1)C(=O)N[C@H](Cc1c[nH]cn1)C(=O)N[C@H](Cc1c[nH]c2ccccc12)C(N)=O [Ac-(D)Leu-(D)Gln-(D)Arg-(D)His-(D)His-(D)Trp-NH2] (Ac-[dL][dQ][dR][dH][dH][dW]-NH2)	25 µM	–
CC(=O)N[C@H](CC(C)C)C(=O)N[C@H](CCC(N)=O)C(=O)N[C@H](CCCNC(=N)N)C(=O)N[C@H](Cc1c[nH]cn1)C(=O)N[C@H](CC(C)C)C(=O)N[C@H](CCCNC(=N)N)C(N)=O [Ac-(D)Leu-(D)Gln-(D)Arg-(D)His-(D)Leu-(D)Arg-NH2] (Ac-[dL][dQ][dR][dH][dL][dR]-NH2)	25 µM	–
CC(=O)N[C@H](CC(C)C)C(=O)N[C@H](CCC(N)=O)C(=O)N[C@H](CCCNC(=N)N)C(=O)N[C@H](Cc1c[nH]cn1)C(=O)N[C@H](CC(C)C)C(=O)N[C@H](Cc1c[nH]c2ccccc12)C(N)=O [Ac-(D)Leu-(D)Gln-(D)Arg-(D)His-(D)Leu-(D)Trp-NH2] (Ac-[dL][dQ][dR][dH][dL][dW]-NH2)	20 µM	–
CC[C@@H](C)[C@@H](NC(=O)[C@@H](CCCNC(=N)N)NC(=O)[C@@H](CCC(N)=O)NC(=O)[C@@H](CC(C)C)NC(C)=O)C(=O)N[C@H](Cc1c[nH]cn1)C(=O)N[C@H](CCCNC(=N)N)C(N)=O [Ac-(D)Leu-(D)Gln-(D)Arg-(D)Ile-(D)His-(D)Arg-NH2] (Ac-[dL][dQ][dR][dI][dH][dR]-NH2)	26 µM	–
CC[C@@H](C)[C@@H](NC(=O)[C@@H](CCCNC(=N)N)NC(=O)[C@@H](CCC(N)=O)NC(=O)[C@@H](CC(C)C)NC(C)=O)C(=O)N[C@H](Cc1c[nH]cn1)C(=O)N[C@H](Cc1c[nH]c2ccccc12)C(N)=O [Ac-(D)Leu-(D)Gln-(D)Arg-(D)Ile-(D)His-(D)Trp-NH2] (Ac-[dL][dQ][dR][dI][dH][dW]-NH2)	19 µM	–
CC[C@@H](C)[C@@H](NC(=O)[C@@H](CCCNC(=N)N)NC(=O)[C@@H](CCC(N)=O)NC(=O)[C@@H](CC(C)C)NC(C)=O)C(=O)N[C@H](CC(C)C)C(=O)N[C@H](CCCNC(=N)N)C(N)=O [Ac-(D)Leu-(D)Gln-(D)Arg-(D)Ile-(D)Leu-(D)Arg-NH2] (Ac-[dL][dQ][dR][dI][dL][dR]-NH2)	35 µM	–
CC[C@@H](C)[C@@H](NC(=O)[C@@H](CCCNC(=N)N)NC(=O)[C@@H](CCC(N)=O)NC(=O)[C@@H](CC(C)C)NC(C)=O)C(=O)N[C@H](CC(C)C)C(=O)N[C@H](Cc1c[nH]c2ccccc12)C(N)=O [Ac-(D)Leu-(D)Gln-(D)Arg-(D)Ile-(D)Leu-(D)Trp-NH2] (Ac-[dL][dQ][dR][dI][dL][dW]-NH2)	24 µM	–
CC[C@@H](C)[C@@H](NC(=O)[C@@H](CCC(N)=O)NC(=O)[C@@H](CC(C)C)NC(C)=O)C(=O)N[C@H](Cc1c[nH]cn1)C(=O)N[C@H](Cc1c[nH]cn1)C(=O)N[C@H](CCCNC(=N)N)C(N)=O [Ac-(D)Leu-(D)Gln-(D)Ile-(D)His-(D)His-(D)Arg-NH2] (Ac-[dL][dQ][dI][dH][dH][dR]-NH2)	20 µM	–
CC[C@@H](C)[C@@H](NC(=O)[C@@H](CCC(N)=O)NC(=O)[C@@H](CC(C)C)NC(C)=O)C(=O)N[C@H](Cc1c[nH]cn1)C(=O)N[C@H](Cc1c[nH]cn1)C(=O)N[C@H](Cc1c[nH]c2ccccc12)C(N)=O [Ac-(D)Leu-(D)Gln-(D)Ile-(D)His-(D)His-(D)Trp-NH2] (Ac-[dL][dQ][dI][dH][dH][dW]-NH2)	27 µM	–
CC[C@@H](C)[C@@H](NC(=O)[C@@H](CCC(N)=O)NC(=O)[C@@H](CC(C)C)NC(C)=O)C(=O)N[C@H](Cc1c[nH]cn1)C(=O)N[C@H](CC(C)C)C(=O)N[C@H](Cc1c[nH]c2ccccc12)C(N)=O [Ac-(D)Leu-(D)Gln-(D)Ile-(D)His-(D)Leu-(D)Trp-NH2] (Ac-[dL][dQ][dI][dH][dL][dW]-NH2)	30 µM	–
CC[C@@H](C)[C@@H](NC(=O)[C@@H](CCC(N)=O)NC(=O)[C@@H](CC(C)C)NC(C)=O)C(=O)N[C@@H](C(=O)N[C@H](Cc1c[nH]cn1)C(=O)N[C@H](CCCNC(=N)N)C(N)=O)[C@H](C)CC [Ac-(D)Leu-(D)Gln-(D)Ile-(D)Ile-(D)His-(D)Arg-NH2] (Ac-[dL][dQ][dI][dI][dH][dR]-NH2)	35 µM	–
CC[C@@H](C)[C@@H](NC(=O)[C@@H](CCC(N)=O)NC(=O)[C@@H](CC(C)C)NC(C)=O)C(=O)N[C@@H](C(=O)N[C@H](Cc1c[nH]cn1)C(=O)N[C@H](Cc1c[nH]c2ccccc12)C(N)=O)[C@H](C)CC [Ac-(D)Leu-(D)Gln-(D)Ile-(D)Ile-(D)His-(D)Trp-NH2] (Ac-[dL][dQ][dI][dI][dH][dW]-NH2)	17 µM	–
CC[C@@H](C)[C@@H](NC(=O)[C@@H](CCC(N)=O)NC(=O)[C@@H](CC(C)C)NC(C)=O)C(=O)N[C@@H](C(=O)N[C@H](CC(C)C)C(=O)N[C@H](CCCNC(=N)N)C(N)=O)[C@H](C)CC [Ac-(D)Leu-(D)Gln-(D)Ile-(D)Ile-(D)Leu-(D)Arg-NH2] (Ac-[dL][dQ][dI][dI][dL][dR]-NH2)	20 µM	–
CC(=O)N[C@H](CC(C)C)C(=O)N[C@H](Cc1c[nH]c2ccccc12)C(=O)N[C@H](CCCNC(=N)N)C(=O)N[C@H](Cc1c[nH]cn1)C(=O)N[C@H](Cc1c[nH]cn1)C(=O)N[C@H](CCCNC(=N)N)C(N)=O [Ac-(D)Leu-(D)Trp-(D)Arg-(D)His-(D)His-(D)Arg-NH2] (Ac-[dL][dW][dR][dH][dH][dR]-NH2)	8.1 µM	–

Second part, the molecule after the results:

IC50	inhibition at 50 µM (50 μM peptide, PDE without calmodulin = 100%, calmodulin without peptide = 0%)	Compound
16 µM	–	CC(=O)N[C@H](CC(C)C)C(=O)N[C@H](Cc1c[nH]c2ccccc12)C(=O)N[C@H](CCCNC(=N)N)C(=O)N[C@H](Cc1c[nH]cn1)C(=O)N[C@H](CC(C)C)C(=O)N[C@H](CCCNC(=N)N)C(N)=O [Ac-(D)Leu-(D)Trp-(D)Arg-(D)His-(D)Leu-(D)Arg-NH2] (Ac-[dL][dW][dR][dH][dL][dR]-NH2)
7.5 µM	–	CC[C@@H](C)[C@@H](NC(=O)[C@@H](CCCNC(=N)N)NC(=O)[C@@H](Cc1c[nH]c2ccccc12)NC(=O)[C@@H](CC(C)C)NC(C)=O)C(=O)N[C@H](Cc1c[nH]cn1)C(=O)N[C@H](CCCNC(=N)N)C(N)=O [Ac-(D)Leu-(D)Trp-(D)Arg-(D)Ile-(D)His-(D)Arg-NH2] (Ac-[dL][dW][dR][dI][dH][dR]-NH2)
20 µM	79%	CC[C@@H](C)[C@@H](NC(=O)[C@@H](Cc1c[nH]c2ccccc12)NC(=O)[C@@H](CC(C)C)NC(C)=O)C(=O)N[C@H](Cc1c[nH]cn1)C(=O)N[C@H](Cc1c[nH]cn1)C(=O)N[C@H](CCCNC(=N)N)C(N)=O [Ac-(D)Leu-(D)Trp-(D)Ile-(D)His-(D)His-(D)Arg-NH2] (Ac-[dL][dW][dI][dH][dH][dR]-NH2)
7.8 µM	–	CC[C@@H](C)[C@@H](NC(=O)[C@@H](Cc1c[nH]c2ccccc12)NC(=O)[C@@H](CC(C)C)NC(C)=O)C(=O)N[C@H](Cc1c[nH]cn1)C(=O)N[C@H](CC(C)C)C(=O)N[C@H](CCCNC(=N)N)C(N)=O [Ac-(D)Leu-(D)Trp-(D)Ile-(D)His-(D)Leu-(D)Arg-NH2] (Ac-[dL][dW][dI][dH][dL][dR]-NH2)
5.1 µM	–	CC[C@@H](C)[C@@H](NC(=O)[C@@H](Cc1c[nH]c2ccccc12)NC(=O)[C@@H](CC(C)C)NC(C)=O)C(=O)N[C@@H](C(=O)N[C@H](Cc1c[nH]cn1)C(=O)N[C@H](CCCNC(=N)N)C(N)=O)[C@H](C)CC [Ac-(D)Leu-(D)Trp-(D)Ile-(D)Ile-(D)His-(D)Arg-NH2] (Ac-[dL][dW][dI][dI][dH][dR]-NH2)
8.6 µM	–	CC[C@@H](C)[C@@H](NC(=O)[C@@H](Cc1c[nH]c2ccccc12)NC(=O)[C@@H](CC(C)C)NC(C)=O)C(=O)N[C@@H](C(=O)N[C@H](Cc1c[nH]cn1)C(=O)N[C@H](Cc1c[nH]c2ccccc12)C(N)=O)[C@H](C)CC [Ac-(D)Leu-(D)Trp-(D)Ile-(D)Ile-(D)His-(D)Trp-NH2] (Ac-[dL][dW][dI][dI][dH][dW]-NH2)
7.2 µM	–	CC[C@@H](C)[C@@H](NC(=O)[C@@H](Cc1c[nH]c2ccccc12)NC(=O)[C@@H](CC(C)C)NC(C)=O)C(=O)N[C@@H](C(=O)N[C@H](CC(C)C)C(=O)N[C@H](CCCNC(=N)N)C(N)=O)[C@H](C)CC [Ac-(D)Leu-(D)Trp-(D)Ile-(D)Ile-(D)Leu-(D)Arg-NH2] (Ac-[dL][dW][dI][dI][dL][dR]-NH2)

— patent publication US5840697A, “Peptide inhibitors of calmodulin” (Torrey Pines Institute for Molecular Studies, priority 1996, dated 1998)
